Structures are written as SMILES. pIC50: −log10 of the molar value.

This experiment addresses T1, M-phase inducer phosphatase 2 (Homo sapiens, UniProt P30305).
T1 sequence (P30305 whole entry): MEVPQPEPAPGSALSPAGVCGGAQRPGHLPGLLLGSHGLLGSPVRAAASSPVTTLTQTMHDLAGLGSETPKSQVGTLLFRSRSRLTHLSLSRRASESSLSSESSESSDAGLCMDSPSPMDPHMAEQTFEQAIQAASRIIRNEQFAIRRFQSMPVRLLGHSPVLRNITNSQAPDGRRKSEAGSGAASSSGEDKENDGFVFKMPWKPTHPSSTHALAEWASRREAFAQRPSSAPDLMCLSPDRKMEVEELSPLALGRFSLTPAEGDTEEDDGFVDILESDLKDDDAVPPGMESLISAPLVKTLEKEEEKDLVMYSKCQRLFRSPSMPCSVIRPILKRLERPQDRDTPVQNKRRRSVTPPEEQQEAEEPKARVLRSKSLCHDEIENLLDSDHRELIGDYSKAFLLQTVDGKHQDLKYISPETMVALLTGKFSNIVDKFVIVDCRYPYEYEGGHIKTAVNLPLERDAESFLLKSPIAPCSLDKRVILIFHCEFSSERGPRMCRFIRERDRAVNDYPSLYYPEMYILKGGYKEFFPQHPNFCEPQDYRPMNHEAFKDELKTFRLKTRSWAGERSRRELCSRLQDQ
Kind of experiment: Cdc25B phosphatase inhibitors, dose response, biochemical, probe assessment (AID 676).
Turning to `Cc1ccc(C)n1-c1cccc(C(=O)O)c1`, the pIC50 (commonly the negative decadic logarithm of the IC50, by convention in mol/L) is under 4.30.
The compound `O=C(Nc1ccc2nc(-c3ccco3)c(-c3ccco3)nc2c1)N1CCCCCC1` had a pIC50 of 4.50.
The figure for `Cc1ccc2c(c1C)NC(C(=O)O)C1CC=CC21` (stereo not drawn) is 4.80; for `Cn1ncnc2c(=O)n(C)c(=O)nc1-2` it is 6.40; for `[O-]/[N+](=C\c1ccncc1)c1ccccc1` it is under 4.30.
`O=C1C=Cc2ccccc2C1=O` [1,2-dihydronaphthalene-1,2-dione] showed a pIC50 of 4.72.
`CCn1nc(-c2ccccc2)nc2c(=O)n(C)c(=O)nc1-2` [1-Ethyl-6-methyl-3-phenyl-1H-pyrimido[5,4-e][1,2,4]triazine-5,7-dione] showed a pIC50 of 6.35.
The compound `Cc1cc(C)n2c(SCC(=O)N3CCN(S(=O)(=O)c4ccc(Cl)cc4)CC3)nnc2n1` [1-[4-(4-chlorophenyl)sulfonyl-1-piperazinyl]-2-[(5,7-dimethyl-[1,2,4]triazolo[4,3-a]pyrimidin-3-yl)thio]ethanone] gave a pIC50 of under 4.30.
Compound `CCn1nc(-c2cccs2)nc2c(=O)n(C)c(=O)nc1-2` [1-ethyl-6-methyl-3-thiophen-2-yl-pyrimido[5,4-e][1,2,4]triazine-5,7-dione] had a pIC50 of 6.26.
The compound `O=C(Nc1ccccc1)c1ccc2nc(-c3ccco3)c(-c3ccco3)nc2c1` [2,3-di-2-furyl-N-phenyl-6-quinoxalinecarboxamide] showed a pIC50 of 4.45.
Turning to `CC(C)Cn1c(N)c(C(=O)COC(=O)c2cc(-c3ccco3)nc3ccccc23)c(=O)n(C)c1=O` [2-(2-furanyl)-4-quinolinecarboxylic acid [2-[4-amino-1-methyl-3-(2-methylpropyl)-2,6-dioxo-5-pyrimidinyl]-2-oxoethyl] ester], the pIC50 was 4.33.
For `CCOc1ccc(-c2cc3nc(C4CCN(C(=O)OC(C)(C)C)CC4)c(C(=O)O)cn3n2)cc1` [2-(4-ethoxyphenyl)-5-[1-[(2-methylpropan-2-yl)oxy-oxomethyl]-4-piperidinyl]-6-pyrazolo[1,5-a]pyrimidinecarboxylic acid], the pIC50 was under 4.30.
Consider `COc1ccc(-c2cc3nc(C4CCN(C(=O)OC(C)(C)C)CC4)c(C(=O)O)cn3n2)cc1` [2-(4-methoxyphenyl)-5-[1-[(2-methylpropan-2-yl)oxy-oxomethyl]-4-piperidinyl]-6-pyrazolo[1,5-a]pyrimidinecarboxylic acid], for which the pIC50 is under 4.30.
`CCn1c(SCC(=O)Nc2nc3ccc(OC)cc3s2)nc2c1c(=O)n(C)c(=O)n2C` [2-(7-Ethyl-1,3-dimethyl-2,6-dioxo-2,3,6,7-tetrahydro-1H-purin-8-ylsulfanyl)-N-(6-methoxy-benzothiazol-2-yl)-acetamide] showed a pIC50 of under 4.30.
In the case of `Cc1cccc(NC(=O)c2cc(NC(=O)C3CCCCC3C(=O)O)ccc2N2CCCCC2)c1` (stereo not drawn) [2-({[3-{[(3-methylphenyl)amino]carbonyl}-4-(1-piperidinyl)phenyl]amino}carbonyl)cyclohexanecarboxylic acid], the pIC50 was under 4.30.
Turning to `Cc1ccc(/C=C/C2=Cc3c(sc(NC(=O)CSc4nnc(N)[nH]4)c3C#N)C(C)(C)C2)o1` [2-[(5-azanyl-1H-1,2,4-triazol-3-yl)sulfanyl]-N-[3-cyano-7,7-dimethyl-5-[(E)-2-(5-methylfuran-2-yl)ethenyl]-6H-1-benzothiophen-2-yl]ethanamide], the pIC50 was 4.33.
Take `N#Cc1c(N)sc(=S)c2c1CCN(Cc1ccccc1)C2` [3-Amino-7-benzyl-1-thioxo-5,6,7,8-tetrahydro-1H-thiopyrano[3,4-c]pyridine-4-carbonitrile]: the pIC50 is 5.30.
For `CCCSc1nnc(NC(=O)c2sc3nc(-c4cccs4)ccc3c2N)s1` [3-amino-N-(5-propylsulfanyl-1,3,4-thiadiazol-2-yl)-6-thiophen-2-ylthieno[2,3-b]pyridine-2-carboxamide], the pIC50 was under 4.30.
Compound `O=C1Nc2ccccc2SC(c2ccccc2)C1O` (stereo not drawn) [3-hydroxy-2-phenyl-2,3-dihydro-1,5-benzothiazepin-4(5H)-one] showed a pIC50 of under 4.30.
`COc1ccc(Br)cc1C=c1sc2nc(-c3ccco3)nn2c1=O` [5-[(5-bromanyl-2-methoxy-phenyl)methylidene]-2-(furan-2-yl)-[1,3]thiazolo[3,2-b][1,2,4]triazol-6-one] had a pIC50 of 4.83.
On to `CCOc1cc(/C=C(/C#N)c2ccc(F)cc2)ccc1OCc1ccc(C(=O)O)o1` [5-[[4-[(E)-2-cyano-2-(4-fluorophenyl)ethenyl]-2-ethoxyphenoxy]methyl]furan-2-carboxylic acid], for which the pIC50 is under 4.30.
On to `Cc1cccc(N2CCN(C(=O)Cc3c(C(=O)O)[nH]c4ccc(Cl)cc34)CC2)c1C` [5-chloranyl-3-[2-[4-(2,3-dimethylphenyl)piperazin-1-yl]-2-oxidanylidene-ethyl]-1H-indole-2-carboxylic acid], for which the pIC50 was under 4.30.
On to `CCCCCNC(=O)c1ccc2c(=O)[nH]c3c(C(=O)NCC4CCCO4)sc(=S)n3c2c1` (stereo not drawn) [5-oxo-N3-(2-oxolanylmethyl)-N8-pentyl-1-sulfanylidene-4H-thiazolo[3,4-a]quinazoline-3,8-dicarboxamide], for which the negative-log IC50 (pIC50) was under 4.30.
The compound `O=C(c1cccs1)c1no[n+]([O-])c1C(=O)c1cccs1` [(5-oxidanidyl-4-thiophen-2-ylcarbonyl-1,2,5-oxadiazol-5-ium-3-yl)-thiophen-2-yl-methanone] had a pIC50 of under 4.30.
On to `CCCCC[C@H](O)C=C[C@H]1C=CC(=O)[C@@H]1C/C=C\CCCC(=O)O` [(Z)-7-[(1R,5S)-2-oxidanylidene-5-[(E,3S)-3-oxidanyloct-1-enyl]cyclopent-3-en-1-yl]hept-5-enoic acid], for which the pIC50 is under 4.30.
`CC1=C(/C=C/C(C)=C/C=C/C(C)=C/C(=O)O)C(C)(C)CCC1` [ALL-TRANS-RETINOIC ACID] gave a pIC50 of under 4.30.
For the compound `COCCCn1c(N)c(C(=O)NCCC(C)C)c2nc3ccccc3nc21` [MLS000041744], the pIC50 is under 4.30.
In turn, `CCn1c(SCC(=O)Nc2ccc3c(c2)c2ccccc2n3CC)nnc1-c1ccco1` [MLS000050867] had a pIC50 of 4.34.
With `COc1ccc(Cn2c(C)nc3c(c2=O)c2nc4ccccc4nc2n3Cc2ccco2)cc1` [MLS000079944], the pIC50 is 4.33.
As for `Cc1ccc(-c2csc(NC(=O)c3ccno3)n2)cc1` [MLS000081820], the figure is 4.45; as for `CC(C)Sc1nc2sc3c(c2c2nnc(SCC(=O)NCc4ccco4)n12)CCCC3` [MLS000082957], under 4.30; as for `Cc1cc(NC(=O)c2ccc(S(=O)(=O)N3CCCC3)cc2)nc2c1c(=O)oc1ccccc12` [MLS000091355], under 4.30.
In turn, `FC(F)(F)c1ccc(N2CCOCC2)c(Nc2nc3ccccc3n3cnnc23)c1` [MLS000093276] showed a pIC50 of under 4.30.
The figure for `COC(=O)c1ccccc1NC(=O)CN1C(=O)C2CCCN2c2ncc(Cl)cc21` (stereo not drawn) [MLS000094302] is under 4.30; for `CCc1ccc(NC(=O)CSc2nc3ccccc3c(=O)n2CCN2CCOCC2)cc1` [MLS000095236] it is under 4.30.
In turn, `Cc1c(N=c2c(=O)c3ccccc3c2=O)c(=O)n(-c2ccccc2)n1C` [MLS000105950] gave a pIC50 of 4.86.
In the case of `CCOc1ccc2noc3c2c1C(=O)c1ccccc1-3` [MLS000106837], the pIC50 was under 4.30.
`COc1ccc2noc3c2c1C(=O)c1ccccc1-3` [MLS000106874]: the pIC50 is under 4.30.
`CCOC(=O)c1ccc2c(c1)C1C=CCC1C(C(=O)O)N2` (stereo not drawn) [MLS-0025126.0001] gave a pIC50 of 4.74.
`O=C(NC1(O)C(=O)c2ccccc2C1=O)c1ccccc1` [N-(2-hydroxy-1,3-dioxo-2-indenyl)benzamide]: the pIC50 was 4.90.
Compound `O=C(OC1CCCCC1)c1ccc2c(c1)C1C=CCC1C(C(=O)O)N2` (stereo not drawn) [SMR000019385] showed a pIC50 of 5.02.
As for `CCCCn1c(NC(=O)c2ccccc2)c(C#N)c2nc3ccccc3nc21` [SMR000060333], the pIC50 was 4.50.
Regarding `N#Cc1c(N2CCCC2)nc(N)c2c(N)nc(N3CCCC3)cc12` [SMR000061605], the pIC50 was 4.67.

For the origin of these results see BindingDB's records for doi:10.7270/Q2125R2H (University of Pittsburgh, 2007).
